Assay [1] concerns wild-type Saccharomyces cerevisiae CEN.PK113-7D yeast strain. Put plainly: Yeast cell growth (OD600) in SD medium. In kind it is cell-based. The note with it: 0 to 8 mM; 24, 48 and 72 hours. The procedure:
Yeast strain was recovered from frozen glycerol stock at 30° C. on YPD agar medium. Yeast was left to propagate in SD medium overnight at 30° C. with shaking at 220 revolutions per minute (rpm). Cells propagated overnight were diluted to a starting optical density at 600 nm (OD600) of approximately 0.2 in fresh SD medium to begin the chronological lifespan (CLS) experiments.
CLS experiments were performed in 96-well plates with 200 μL yeast culture. Cellular inoculums were transferred into 96-well plates containing serially double-diluted concentrations (0 to 10 nM) of rapamycin. Cellular inoculum was transferred into 96-well plates containing serially double-diluted concentrations (0 to 8 mM) of 2,5-anhydro-D-mannitol, D-fructose, D-mannitol, D-maltose, and D-sorbitol in SD medium. Cells were incubated at 30° C., and the growth was measured at different time points. The growth time point 72 hours was considered as Day 1 for the CLS assay. Cell survival was quantified at various age time points by three different approaches: (i) PI fluorescence-based method, (ii) outgrowth in YPD liquid medium, and (iii) spotting assay (FIG. 1).
Firstly, the effect of 2,5-AM on cell growth was determined. Yeast cells were incubated with varying concentrations of 2,5-AM in the SD medium. Cell growth was measured at different time points (24 hours, 48 hours, and 72 hours). […] Then, the survival of chronologically aged cells supplemented with different concentrations of 2,5-AM was measured using the PI fluorescence method. At each chronological age point, a 3 μL culture was transferred to a second 96-well plate containing 200 μL YPD medium. The 72-hour growth culture was considered Day 1 for the CLS analysis. The viability fraction was calculated, and a survival graph was plotted for different chronological age time points (FIG. 5). […] The survival of aged cells supplemented with 2,5-AM (4 mM and 8 mM) on Day 4 was approximately 80%. However, the survival of aged cells without 2,5-AM was approximately 50%. On Day 7, survival of 2,5-AM supplemented aged cells was approximately 75%. However, the survival of aged cells without 2,5-AM was reduced to less than 20%.
Firstly, the effect of fructose, mannitol, maltose, and sorbitol on cell growth was tested. Yeast cells were incubated with various concentrations of fructose, mannitol, maltose, and sorbitol similar to 2,5-AM in the SD medium. […] Next, the survival of chronologically aged cells on day 1, day 7, day 14, and day 21 was measured. […] Aged cells supplemented with 2,5-AM (8 mM) survived (approximately 65%) on Day 21. However, the survival of aged cells without 2,5-AM supplementation was less than 10%.

The test system of assay [2] is CEN.PK113-7D snflΔ deletion strain. Put plainly: Growth sensitivity of SNFl gene deletion strain. Format: cell-based, Saccharomyces cerevisiae. To be noted: different concentrations; compared to wild-type strain. An excerpt:
The prototrophic wild-type Saccharomyces cerevisiae CEN.PK113-7D yeast strain genetic background (Euroscarf, Köhlerweg, Oberursel, Germany), and the Saccharomyces cerevisiae BY4743 strain (Euroscarf, Köhlerweg, Oberursel, Germany) were used. The CEN.PK113-7D snflΔ deletion strain was constructed. The standard rich Yeast-Extract Peptone Dextrose (YPD) medium (1% w/v Bacto yeast extract, 2% w/v Bacto peptone, and 2% w/v glucose) (BD, Franklin Lakes, New Jersey, United States of America), YPD agar (2.5% w/v Bacto agar) (BD, Franklin Lakes, New Jersey, United States of America), and synthetic defined (SD) medium (BD, Franklin Lakes, New Jersey, United States of America) used here contained 6.7 g/L Difco™ Yeast Nitrogen Base (without amino acids and with ammonium sulfate) (BD, Franklin Lakes, New Jersey, United States) and 2% w/v glucose. Rapamycin (Enzo Life Sciences, Farmingdale, New York, United States) stock solution was prepared in dimethyl sulfoxide (DMSO) (Sigma-Aldrich, St. Louis, Missouri, United States of America). […]

The subject of the next assay is HEK293 cells. Put plainly: CLS in human cells, propidium iodide fluorescence-based method (HEK293). To be noted: sixth day after seeding. In kind it is cell-based. As for the experimental part:
Human embryonic kidney 293 (HEK293) cells (ATCC, Manassas, Virginia, United States of America), lung epithelial (A549) cells (ATCC, Manassas, Virginia, United States of America) and fibroblast (IMR90) cells (ATCC, Manassas, Virginia, United States of America) were cultured in the standard D10 medium, consisting of high-glucose DMEM (HyClone, Cytiva, Marlborough, Massachusetts, USA) supplemented with 10% Fetal Bovine Serum (FBS) (Gibco™, ThermoFisher Scientific, Waltham, Massachusetts, USA) and 1% Penicillin Streptomycin Solution (Gibco™, ThermoFisher Scientific, Waltham, Massachusetts, USA). All cells were cultured in a humidified incubator with 5% CO2 at 37° C.
The stock solution of rapamycin, hemin, 5-fluorouracil, atorvastatin, and methotrexate was prepared in DMSO, followed by serial dilution to form various concentrations used in the experiment. The final DMSO concentration was kept at 0.05% in all experiments. The stock solution of 2,5-anhydro-D-mannitol was prepared in D10 medium. The chemical library used in screening were tested at 1 μM concentrations. Controls used were the same as the solvent applied, DMSO or water.
The assay was performed by preparing the cells with PI (2 μg/mL or 5 μg/mL) in a D10 medium. […] At different age time points, reading was taken with a Synergy MX microplate reader (BioTek, Winooski, Vermont, United States) at 535 nm excitation and 617 nm emission.

This is an account of results in patent US20250161338A1, “Compounds for Anti-aging Intervention” (AGENCY FOR SCIENCE, TECHNOLOGY AND RESEARCH, priority 2022, published 2025).

“Also recorded” adds a separate entry of the source.

With `OC[C@H]1O[C@H](CO)[C@@H](O)[C@@H]1O` [2,5-AM, 2,5-anhydro-D-mannitol], the cell growth result in assay [1] is “reached the same saturation level after 24 hours; also recorded: did not affect cell growth”. Also, the “growth of snflΔ deletion strain” value in assay [2] is “inhibited the growth of snflΔ deletion strain compared to wild-type strain”. Moreover, the “more live cells compared to the untreated group” value with HEK293 cells (2.5 mM) is reported as 34.39%; in the assay on HEK293 cells (5 mM) it was 58.7%.
